Laboratory results reported in patent EP1101496A1, “THERAPEUTIC AGENTS FOR ALLERGIC DISEASES” (FUJI YAKUHIN KOGYO KABUSHIKI KAISHA, priority 1998, dated 2000).

Key:
[1] = test system: mouse scratching behavior; assay: Scratching behavior in experimental atopic dermatitis model; type: in vivo, mice; conditions: for % Inhibition (scratching behavior) / Scratching Behavior (Times) (Average± Deviation): 0.1% in ethanol painted on auricles 1 hour pre-elicitation; for % Inhibition (scratching behavior): 15 to 30 min and 30 to 45 min post-elicitation durations, versus solvent control; for Scratching Behavior (Times) (Average± Deviation): counts for the 15 to 30 min and 30 to 45 min post-elicitation durations
Procedure: Mice were passively sensitized with anti-DNP IgE Ab and then elicited by painting 0.1% DNFB in ethanol onto both sides of a pair of mouse auricles […] in the same manner as in Example 1. Five minutes pre-elicitation, an ethanolic solution containing 0.3% of Compound No. 20 was painted onto both sides of a pair of the auricles at a dose of 10 µL per each side. Tacrolimus (Fujisawa Pharmaceutical Co., Ltd.) was used as a positive control drug. An ethanolic solution containing 0.1% of the positive control drug was prepared just prior to use and then painted onto the mouse auricles 1 hour pre-elicitation in the same manner as for the painting of Compound No. 20. A negative control group was painted with a solvent alone (6 animals per group).
From the point immediately after elicitation, each mouse was housed individually in a comparted acrylic cage and observed by taking a video without any attendant up to 2 hours after elicitation (Inagaki, N., et al., The European Journal of Pharmacology, 367: 361-371, 1999). After finishing such a video recording, scratching behavior by mouse hind paws to a pair of ears was visually examined for each mouse and integrated scratching behaviors were counted during 6 post-elicitation durations for 20 minutes each; 0 to 20 min., 20 to 40 min., 40 to 60 min., 60 to 80 min., 80 to 100 min., and 100 to 120 min. In this experiment, an action from a start to scratch the ear by the mouse hind paw to a release of the hind paw is counted as one scratching behavior.
Mice were passively sensitized with anti-DNP IgE Ab and then elicited with 0.1% DNFB in ethanol 24 hours post-sensitization in the same manner as in Example 12. One hour pre-elicitation, a 0.1% solution of a metalloproteinase inhibitor (Compound No. 20 or 21) in ethanol was painted onto both sides of a pair of the auricles at a dose of 10 µL per each side. A negative control group was painted with a solvent alone. From the point immediately after the elicitation, each mouse was housed individually in a comparted cage and observed by taking a video without any attendant up to 2 hours thereafter (3 animals per group). In the same manner as in Example 12, scratching behaviors by mouse hind paws were counted for every 15 minutes: 8 post-elicitation durations; 0 to 15 min., 15 to 30 min., 30 to 45 min., 45 to 60 min., 60 to 75 min., 75 to 90 min., 90 to 105 min., and 105 to 120 min.

[2] = Body weight gain in sensitized mice (experimental atopic dermatitis model); type: in vivo; conditions: painted on auricles twice a day; Compound No. 8 50 µg/ear/dose, prednisolone 5 µg/ear/dose; Days 1, 4 and 7; versus solvent control (ethanol)
Procedure: Experimental atopic dermatitis model mice sensitized in the same manner as in Example 1 were examined for influence on body weight gains.
A solution of a test metalloproteinase inhibitor (Compound No. 8; 50 µg/ear/dose, twice a day) in ethanol or a solution of prednisolone (5 µg/ear/dose, twice a day) in ethanol was administered to mice (5 animals per group) by painting onto both sides of a pair of the auricles, not only one hour prior to elicitation but also 0.25, 3, 4, 5 and 6 days post-elicitation. Each mouse was measured for its body weight not only immediately before the start in painting but also on Days 1, 4 and 7 after the start in painting. Each gain in body weight was calculated and considered to indicate an effect on body weight changes affected by said treatments.

[3] = test system: Type IV Allergic Dermatitis; assay: Type IV allergic dermatitis (oxazolone-induced auricle edema); type: in vivo, Mice (male, Balb/c)
Procedure: Mice (male, Balb/c, 6 weeks old, 20 to 25 g) were sensitized by painting a 3% solution of oxazolone (100 µL) abdominally. Six days after sensitization, a 0.5% solution of oxazolone in acetone was painted on both sides of a right ear at a dose of 10 µL to raise auricle edema. An untreated group was painted with the solvent (acetone) alone onto both sides of a left ear of the same mouse at 10 µL. At 24 hours after edema-induction, each mouse was sacrificed with ether and an equivalent each of right and left auricles was stamped out with a puncher (diameter: 6 mm). Both left and right auricle sections were measure for their weight and each percent edema was calculated (Kazuo Ouchi (Ed.), "Seibutsu Yakukagaku Jikken Koza, Ensho To Allergy (Inflammation and Allergy) I-1", 1993, Hirokawa Publishing Co., Japan) Percent Edema (%) =((Right Auricular Segment Weight - Left Auricular Segment Weight))/(Left Auricular Segment Weight)× 100 [formula]
A solution of a test metalloproteinase inhibitor (Compound No. 8, 50 mg/mL) in ethanol was painted onto both sides of a right auricle at 10 µL per side twice, i.e., 0.5 hr prior to edema-induction and 6 hours after edema-induction. The solvent (ethanol) alone was painted on a left auricle at the same dose ([…]). […]

[4] = test system: Experimental Bronchial Asthma Model; assay: Experimental bronchial asthma model (ovalbumin-sensitized, airway resistance and asthmatic death); type: in vivo, Guinea pigs
Procedure: Guinea pigs (female, Std:Hartley, 3 weeks old, 200 to 250 g) were individually housed in a plastic chamber (width, 200 mm; depth, 300 mm; height, 167 mm). Aqueous ovalbumin (10 mg/mL) was administered to the guinea pigs once a day for sensitization by 10 min. inhalation with a nebulizer (5B, Nippon Shoji K.K.: flow rate, 6 L/min.) at a dose of 10 mg/mL during 8 cosecutive days. On Day 7 after the final sensitization, the guinea pigs were housed in a plastic chamber and inhaled using a nebulizer with a solution of ovalbumin (10 mg/mL) in physiological saline for 1 min. for elicitation (Matsumoto, T., et al., The Journal of Pharmacology and Experimental Therapeutics, 269: 1236-1244, 1994). The number of animals employed in the experiment was set to the extent there are at least 6 as individuals escaping asthmatic death. A solution of a test metalloproteinase inhibitor (Compound No. 8, 15 mg/kg) in water for injection was administered subcutaneously twice, i.e., 24 hours and 2 hours prior to elicitation. Similarly, the solvent alone was also administered to a negative control group. A suspension of prednisolone (10 mg/kg) in 0.5% aqueous methyl cellulose was administered orally twice, i.e., 24 hours and 2 hours prior to elicitation. Similarly, the solvent alone was also administered to another control group.
The evaluation for efficacies was conducted in terms of airway resistance. For this purpose, an apparatus dedicated to the measurement of airway resistance (K.K. Medical Agent) was employed. Measurement includes setting a guinea pig in a test chamber under a not-anesthetized condition, applying sinusoidal pressure waves of 30 Hz components to a part below the neck of the animal from the back side of the chamber, measuring respiratory waves of 30 Hz components leaking through the mouth (volume of 30 Hz air flow passing through the respiratory tract) in front of the neck, and calculating airway resistance mechanically. Measurement was carried out immediately prior to the first drug treatment (24 hours before elicitation), just prior to elicitation, 10 minutes, 1, 2, 4, 6, and 8 hours post-elicitation.
It was visually observed by a person carrying out said test in terms of the appearance of cyanosis or suffocative death (asthmatic death) due to respiratory obstruction.
Guinea pigs were sensitized with ovalbumin and asthma was induced on Day 7 after final sensitization in the same manner as in Example 18. The number of animals employed in the experiment was set to the extent there are at least 6 as individuals escaping asthmatic death (8 to 11 animals/group). In the same manner as in Example 18, the animals were measured for airway resistance mechanically and each percent change (%) in airway resistance was calculated (each value just prior to elicitation was set as 100%). Each percent amelioration in airway resistance was calculated from the percent changes in airway resistance according to the following formula: Amelioration in Airway Resistance (%) = 1 -[((Percent Change in Airway Resistance after Drug-Administration)-(Value just prior to Challenge (100)))/((Percent Change in Airway Resistance after Solvent -Administration)-(Value just prior to Challenge (100)))]× 100 [formula]
A solution of a test metalloproteinase inhibitor (Compound No. 22: 15 mg/kg or 30 mg/kg) in water for injection or the solvent alone as a negative control was administered to each animal subcutaneously twice, i.e., 24 hours and 2 hours prior to elicitation.

[5] = Mouse body weight gain (side-effect index); type: in vivo, mice; conditions: average ± standard deviation; once a day Days 0-5; Compound No. 8 or 10 60 mg/kg s.c., prednisolone 10 mg/kg i.p.
Procedure: Next the mice were measured for their body weight.

[6] = suffocative death due to cyanosis just after elicitation, Compound No. 8 15 mg/kg s.c., prednisolone 10 mg/kg orally, 24 and 2 hours prior to elicitation

What does the source list for CNC(=O)[C@H](Cc1ccc(NC(=N)N)cc1)NC(=O)[C@H](CC(C)C)C(CCCc1ccccc1)C(=O)NO.Cl (single isomer, unassigned) [Compound No. 20, N-[4-(N-hydroxyamino)-2(R)-isobutyl-3(R or S)-(3-phenyltrimethylene)succinyl]-L-4'-guanidophenylalanine-N-methylamide 1 hydrochloride]?
% Inhibition (scratching behavior) [1]: 40.7%; Scratching Behavior (Times) (Average± Deviation) [1]: 124.0 ± 43.6 Times; inhibitory efficacy on scratching in the 20 to 40 min post-elicitation duration (FIG. 8) ([1]; 0.3% Compound No. 20 versus 0.1% tacrolimus, painted on auricles): higher than that of tacrolimus; efficacy on mouse scratching behavior (FIG. 8) ([1]; 0.3% ethanolic solution painted on auricles 10 µL per side 5 minutes pre-elicitation, observed up to 2 hours): apparently inhibits mouse scratching behavior

For CNC(=O)[C@H](Cc1ccc(N=C(N)N)cc1)NC(=O)[C@@H](CC(=O)NO)CC(C)C.O=S(=O)(O)O [Compound No. 21, N-[4-(N-hydroxyamino)-2(R)-isobutylsuccinyl]-L-4'-guanidophenylalanine-N-methylamide 1 sulfate], which “% Inhibition (scratching behavior)” value [1] is on record?
Its value is 54.1%.

What about the “Scratching Behavior (Times) (Average± Deviation)” value [1] of the same molecule?
Its value is 96.0 ± 32.6 Times.

For CNC(=O)[C@H](Cc1ccc(NC(=N)N)cc1)NC(=O)[C@H](CC(C)C)C(CCCc1ccccc1)C(=O)NO (single isomer, unassigned) [Compound No. 8, N-[4-(N-hydroxyamino)-2(R)-isobutyl-3(R or S)-(3-phenyltrimethylene)succinyl]-L-4'-guanidophenylalanine-N-methylamide 1 acetate], which “gain in body weight (FIG. 9)” value [2] is on record?
The value was “almost equivalent to that in the solvent control group”.

What about the “therapeutic potency on the development of auricle edemas (FIG. 12)” value ([3]; 50 mg/mL in ethanol, 10 µL per side painted on right auricle 0.5 hr prior to and 6 hours after edema-induction, 24 hours after induction) of the same molecule?
The value was “amelioration of auricle edemas”.

What about the “effect of the compound alone on auricles (unsensitized group, FIG. 12)” value ([3]; unsensitized mice, 50 mg/mL in ethanol painted on auricle) of the same molecule?
Its value is “almost free of swelling and/or thinning”.

What about the “airway resistance (FIG. 11)” value ([4]; 15 mg/kg s.c. 24 hours and 2 hours prior to elicitation, IAR 1 hour and LAR 6 hours post-elicitation) of the same molecule?
Its value is “significant reduction of the increased airway resistance”.

And the “% Mortality” value [4, 6]?
The value was 0.0%.

And the “(Dead Animals)/(Tested Animals)” value [4, 6]?
The value was 0/10.

What about the “Body Weight Gain, Day 5” value [5] of the same molecule?
The value was 0.57± 0.61.

What about the “Body Weight Gain, Day 7” value [5] of the same molecule?
The value was 0.77± 0.55.

What about the “Body Weight Gain, Day 10” value [5] of the same molecule?
The value was 1.20± 0.26.
